Measurements taken from publication PMC9959349, “Discovery of the 3-Amino-1,2,4-triazine-Based Library as Selective PDK1 Inhibitors with Therapeutic Potential in Highly Aggressive Pancreatic Ductal Adenocarcinoma” (International Journal of Molecular Sciences, 2023).

Columns and labels:
recombinant human HSP90 = recombinant human HSP90 (Homo sapiens, UniProt P07900); assay: HSP90 inhibition assay (Transcreener ADP kit); format: biochemical; conditions: 1.5 µM compound (equivalent doses)
Method: The in vitro inhibitory activity of tested compounds on recombinant human HSP90 was assessed by The Transcreener™ ADP kit (Bellbrook Labs) according to the manufacturer’s protocol. Human recombinant HSP90 protein was incubated with tested compounds in the presence of 250 μM ATP at 37 °C for 30 min, 4°C for 30 min and ATPase activity was stopped via the addition of the stop and detect buffer. Following this, samples were incubated for 1 h at room temperature with the ADP2 Antibody and the ADP Alexa594 Tracer. The fluorescence intensity polarization of samples was measured with a Tecan plate reader (Tecan Infinite® M200). The evaluation was based on means from at least three independent experiments.

PSN-1 cells = assay: Cell death induction, Hoechst 33258 staining; format: cell-based, human; conditions: 48 h, IC50 doses
Method: As a last mechanistic evaluation, the ability of selected compounds 5i and 6h to induce cancer cell death by means of apoptosis, was also assessed.
PSN-1 cells were seeded into 8-well tissue-culture slides (BD Falcon, Bedford, MA, USA) at 5 × 10^4 cells/well (0.8 cm^2). […] Samples were examined at 5× and 40× magnification in a Zeiss LSM 800 confocal microscope using the Zeiss ZEN 2.3 software system (Zeiss, Oberkochen, Germany).

[1] = Body weight changes of LLC-bearing mice; format: in vivo; conditions: LLC-bearing C57BL mice, 5i 20 mg kg−1 daily i.p.
[2] = test system: S232 PDH E1 alpha protein (PDHA1) phosphorylation in LLC tissue; assay: PDH phosphorylation in mice tumor tissues (ELISA); format: in vivo, C57BL mice; conditions: LLC-bearing mice, 5i 20 mg kg−1 daily i.p., tumors collected day 15
Method: As a proof-of-concept of PDK inhibitory activity of the newly developed 3-amino 1,2,4-triazines, we also assessed the phosphorylation level of S232-PDHA1 in tumor samples of animals treated with 5i. Tumors of treated animals collected on day 15 were homogenized and phopho-S232-PDHA1 levels were quantified by an ELISA Kit.
The phosphorylation level of S232 PDH E1 alpha protein (PDHA1) in LLC tissue homogenates was assessed by ELISA Kit (Abcam) following the manufacturer’s instructions. The amount of phosphorylated S232 PDHA1 protein was detected by measuring the absorbance of each well at 600 nm, using a Bio-Rad 680 microplate reader.

[3] = test system: murine Lewis Lung Carcinoma (LLC); assay: In vivo anticancer activity, LLC solid tumor model; conditions: LLC-bearing C57BL mice, daily dosing days 7-14, evaluated day 15; 5i 20 mg kg−1 i.p., gemcitabine 60 mg kg−1, cisplatin 3 mg kg−1
Description: Seven days after tumor inoculation the tumor-bearing mice were randomized into vehicle control and treatment groups.
The LLC was implanted intramuscularly (i.m.) as a 2 × 10^6 cell inoculum into the right hind leg of 8-week-old male and female C57BL mice (24 ± 3 g body weight). After 7 days from tumor implantation (visible tumors), mice were randomly divided into 4 groups (8 animals per group) and subjected to daily i.p. administration. […] At day 15, animals were sacrificed, the legs were amputated at the proximal end of the femur, and the inhibition of tumor growth was determined from the difference in the weights of the tumor-bearing leg and the healthy leg of the animals, expressed as a percentage referenced to the control animals. Body weight was measured at day 0 and from day 7 onwards every 2 days and was taken as a parameter for systemic toxicity. All presented values are the means ± SD of no less than three measurements.

Cn1cc(-c2nnc(N)nc2-c2cn(C)c3ccc(F)cc23)c2ccccc21 [5i]
decrease of HSP90 catalytic activity (recombinant human HSP90): 60–80%
apoptosis induction (nuclear morphology) (PSN-1 cells): brightly stained nuclei and morphological features typical of cells undergoing apoptosis
body weight loss (in words) [1]: lower than that induced by cisplatin and gemcitabine
phospho-S232-PDHA1 level in tumor samples [2]: dramatically reduced PDH phosphorylation
reduction in tumor growth compared to the control group [3]: about 80%
